Assay results: patent US20240207380A1, “NOVEL PEPTIDE TARGETING DENDRITIC CELLS, AND COMPOSITION FOR TREATING CANCER COMPRISING SAME” (INDUSTRY FOUNDATION OF CHONNAM NATIONAL UNIVERSITY, priority 2021, published 2024)
Entries after “also recorded” stand apart in the source; their conditions may differ. Ends that are not written are not given here. * marks the point of attachment. Biotin = O=C1N[C@H]2[C@H](CS[C@H]2CCCCC(=O)*)N1

B1: FlaB: flagellin B (FlaB) derived from Vibrio vulnificus, SEQ ID NO: 23 (protein)
chain: MAVNVNTNVAAMTAQRYLNNANSAQQTSMERLSSGFKINSAKDDAAGLQISNRLNVQSRGLDVAVRNANDGISIAQTAEGAMNETTNILQRMRDLSLQSANGSNSKSERVAIQEEVTALNDELNRIAETTSFGGNKLLNGTYGTKAMQIGADNGEAVMLSLKDMRSDNVMMGGVSYQAEEGKDKNWNVAAGDNDLTIALTDSFGNEQEIEINAKAGDDIEELATYINGQTDLVKASVGEGGKLQIFAGNNKVQGEIAFSGSLAGELGLGEGKNVTVDTIDVTTVQGAQESVAIVDAALKYVDSHRAELGAFQNRFNHAISNLDNINENVNASKSRIKDTDFAKETTQLTKTQILSQASSSILAQAKQAPNSALSLLG
modifications: FlaB (F)
B2: EF: recombinant fusion of four copies of E7ΔNLS and FlaB, SEQ ID NO: 24 (protein)
chain: MIDGPAGQAEPDRAHYNIVTFCCKCDSTLRLCVQSTHVDIRTLEDLLMGTLGIVCPICSQKPEFIDGPAGQAEPDRAHYNIVTFCCKCDSTLRLCVQSTHVDIRTLEDLLMGTLGIVCPICSQKPVDIDGPAGQAEPDRAHYNIVTFCCKCDSTLRLCVQSTHVDIRTLEDLLMGTLGIVCPICSQKPVDIDGPAGQAEPDRAHYNIVTFCCKCDSTLRLCVQSTHVDIRTLEDLLMGTLGIVCPICSQKPKLMAVNVNTNVAAMTAQRYLNNANSAQQTSMERLSSGFKINSAKDDAAGLQISNRLNVQSRGLDVAVRNANDGISIAQTAEGAMNETTNILQRMRDLSLQSANGSNSKSERVAIQEEVTALNDELNRIAETTSFGGNKLLNGTYGTKAMQIGADNGEAVMLSLKDMRSDNVMMGGVSYQAEEGKDKNWNVAAGDNDLTIALTDSFGNEQEIEINAKAGDDIEELATYINGQTDLVKASVGEGGKLQIFAGNNKVQGEIAFSGSLAGELGLGEGKNVTVDTIDVTTVQGAQESVAIVDAALKYVDSHRAELGAFQNRFNHAISNLDNINENVNASKSRIKDTDFAKETTQLTKTQILSQASSSILAQAKQAPNSALSLLGLEHHHHHH
modifications: 4xE7deltaNLS::FlaB (EF)

Legend:
CD11c^+-BMDC = test: Cellular uptake of DC-targeting peptides by bone marrow-derived dendritic cells (FACS); assay type: cell-based, C57BL/6 mice; settings: biotinylated peptides, 2 hours in RPMI 1640, FACS gated on CD11c+, compared with negative control
Description: (§1) Bone marrow (BM) cells were isolated by flushing femurs and tibias of C57BL/6 mice, and red blood cells (RBCs) were depleted by ACK lysis (Gibco, A10492-01). The cells were centrifuged and strained through a 70 μm filter before being resuspended in RPMI 1640 supplemented with 10% heat-inactivated FBS, 100 units/ml penicillin, and 100 μg/ml streptomycin. The cells were resuspended in complete RPMI 1640 culture medium containing GM-CSF (10 ng/ml; R&D Systems, 415-ML-010) and IL4 (10 ng/ml; R&D Systems, 415-ML-010), inoculated into a cell culture dish, and cultured at 37° C. and 5% CO2. The culture medium was refreshed every two days. On day 7 or 8, DCs loosely bound to the bottom were collected by gentle pipetting. Splenic DCs were prepared by CD11c+ MicroBeads MACS (Miltenyi Biotec, 130-052-001) following the manufacturer's instructions.
(§2) Peptides were synthesized using […] chemistry, purified using high-pressure liquid chromatography to more than 95% purity, and biotinylated in the side chain (AnyGen Inc., South Korea). Peptides were dissolved in appropriate solvents according to the manufacturer's instructions to a concentration of 0.5 mg/ml. To test CD11c^+ cell targeting by the synthesized peptides, cLNs, splenic DCs, and BMDCs were treated with the 6 peptides for 2 hours in RPMI 1640 medium. After incubation with peptides, the cells were harvested, washed and stained with anti-mouse CD11c^+ APC-conjugated Ab (eBioscience, Clone: N418, 170114-82) and streptavidin-AF488. Cells were FACS analyzed by gating upon the CD11c^+ cell population, and the results are depicted in FIGS. 6 and 7.

[1] = system: cervical lymph node cells, splenic dendritic cells, and bone marrow-derived dendritic cell; test: Cellular uptake of DC-targeting peptides in lymph node cells, splenic DCs and BMDCs (FACS); assay type: cell-based, mice; settings: biotinylated peptides, 2 hours, FACS gated on CD11c+
Description: as §1, §2

[2] = system: CD11c^+ cells from cervical lymph nodes; test: In vivo dendritic cell targeting after intranasal administration; parameters: species or system BALB/c mice; settings: 6.5 hours post-inoculation, compared to scrambled-peptide negative control
Description: The peptide at appropriate concentrations in a total volume of 10 μl/nostril was given intranasally to BALB/c mice. A scrambled peptide previously shown to be nonspecific to DCs was used as a negative control. At 6.5 hours post-inoculation, mice were sacrificed, and their cLNs were harvested. Single-cell suspensions were prepared by gently tearing the LN capsule. After gentle washing in 1×PBS, cells were stained with anti-mouse CD11c^+ APC-conjugated Ab (eBioscience, Clone: N418, 170114-82) and streptavidin-AF488, and FACS analysis was performed.

TC-1 cells = test: Efficacy of E7ΔNLS as tumor antigen in TC-1 tumor-bearing mice; assay type: in vivo, C57BL/6 mice; settings: peritumoral injection three times at intervals of five days; 4 μg FlaB, 10 μg E7FL, 8 μg E7ΔNLS alone or combined
Description: Female SPF C57BL/6 mice 7 to 8 weeks old were purchased from ORIENT (Seongnam-si, Gyeonggi-do, Korea). TC-1 cells were cultured in RPMI 1640 medium supplemented with 10% heat-inactivated FIBS, 100 units/ml penicillin, and 100 μg/ml streptomycin at 37° C. under 5% CO2. Tumors were established in mice by subcutaneous injection of 5×10^4 TC-1 cells in 100 μl of PBS into the right mid-flank of each mouse. […] Tumor growth was monitored every three days. The tumor volume was calculated with formula V=(tumor length)×(tumor width)×(tumor height)/2.

TLR5 = molecular target: T1, TLR5 (Homo sapiens, UniProt O60602); assay type: cell-based; settings: HEK-Blue hTLR5 cells
T1 construct: host or cells: HEK-Blue hTLR5 cells (HEK293-derived reporter line, own knowledge: stably transfected with the human TLR5 gene and an NF-kB-inducible SEAP reporter)
T1 sequence (O60602 21-858): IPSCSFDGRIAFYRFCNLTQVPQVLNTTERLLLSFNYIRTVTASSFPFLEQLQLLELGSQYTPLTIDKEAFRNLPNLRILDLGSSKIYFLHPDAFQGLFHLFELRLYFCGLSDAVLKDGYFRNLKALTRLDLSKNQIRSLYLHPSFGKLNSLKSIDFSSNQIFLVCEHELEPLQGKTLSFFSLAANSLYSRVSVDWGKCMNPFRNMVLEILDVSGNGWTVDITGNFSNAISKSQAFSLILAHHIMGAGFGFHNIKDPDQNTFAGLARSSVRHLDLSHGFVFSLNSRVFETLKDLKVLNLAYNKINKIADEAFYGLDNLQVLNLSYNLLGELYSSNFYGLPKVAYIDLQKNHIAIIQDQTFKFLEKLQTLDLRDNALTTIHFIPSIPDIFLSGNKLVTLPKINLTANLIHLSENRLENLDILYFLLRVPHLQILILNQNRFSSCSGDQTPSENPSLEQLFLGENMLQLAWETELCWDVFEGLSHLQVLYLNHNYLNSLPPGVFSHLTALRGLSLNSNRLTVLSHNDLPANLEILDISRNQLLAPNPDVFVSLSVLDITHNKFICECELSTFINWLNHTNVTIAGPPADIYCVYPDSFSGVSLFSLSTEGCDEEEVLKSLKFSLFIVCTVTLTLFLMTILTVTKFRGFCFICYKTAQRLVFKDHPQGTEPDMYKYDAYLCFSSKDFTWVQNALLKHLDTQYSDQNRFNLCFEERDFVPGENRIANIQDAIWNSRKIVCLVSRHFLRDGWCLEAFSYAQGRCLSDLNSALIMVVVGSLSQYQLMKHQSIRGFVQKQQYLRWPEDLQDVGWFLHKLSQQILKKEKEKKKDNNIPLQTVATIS
Description: Also, the EC50 was calculated using triplicate OD 620 nm values for each protein concentration over a wide range of protein concentrations (0.0375 nM-19.29 nM at the AAT Bioquest website).

[3] = system: Bone marrow-derived dendritic cells (BMDCs); test: Cellular uptake of EF and DEF in BMDCs (flow cytometry); assay type: cell-based, C57BL/6 mice; settings: 2 hours, anti-FlaB staining, FACS gated on CD11c+
Description: Cells treated with PBS alone were used as a negative control. After incubation, the cells were washed twice with cold 1×PBS containing 3% FBS and then stained with anti-mouse CD11c^+ antibody (eBioscience, Clone: N418, 25-0114-82) for 1 hour at 4° C. and fixed with 4% paraformaldehyde (T&I, BPP-9004) for 10 minutes at room temperature. The cells were permeabilized using a permeabilization kit according to the manufacturer's instructions (Invitrogen, 00-8333-56) and stained with anti-FlaB antibodies, followed by FACS analysis by gating upon the CD11c^+ population. The results are depicted in FIG. 14.

[4] = system: Bone marrow-derived dendritic cells (BMDCs); test: Antigen-presenting cell activation (CD80 and CD86 on BMDC surface); assay type: cell-based, C57BL/6 mice; settings: 0.5 μg/ml, 24 hours
Text: The cells were stained on ice with fluorophore-labeled antibodies before flow cytometry analysis.

Molecule | targeting ability / cellular uptake of the peptides by bone marrow-derived dendritic cells (FIG. 6) (CD11c^+-BMDC) | cellular uptake in cervical lymph node cells, splenic dendritic cells and BMDCs (FIG. 7) [1] | also measured
DCpep6: RFFCLGPLGFTKVD, SEQ ID NO: 6; dendritic cell-targeting peptide discovered by in vivo biopanning (peptide 6, and DCpep6) | efficiently targeted; also recorded: remarkably higher efficiency | remarkably higher specific signals | cellular uptake in cervical lymph node cells, splenic dendritic cells and BMDCs (FIG. 7) ([1]; listed as DCpep 6): increased cellular uptake; localization of peptide in cervical lymph node cells (FIG. 8) [2]: clearly localized in the cytoplasm of CD11c^+ cells
DCpep 3: SPACLDLGLVPWKI, SEQ ID NO: 9; dendritic cell-targeting peptide, Arg replaced by Lys for biotinylation (SPACLDLGLVPWK(Biotin)I) | efficiently targeted | increased cellular uptake | 
DCpep 4: VDLYPCYTFHSKVV, SEQ ID NO: 10; dendritic cell-targeting peptide, Arg replaced by Lys for biotinylation (VDLYPCYTFHSK(Biotin)VV; not fully specified) | efficiently targeted | increased cellular uptake | 
B1 |  |  | tumor suppression (tumor volume, FIGS. 11 and 12) (TC-1 cells): did not manifest any suppressive effect
B2 |  |  | NF-κB activity levels (FIG. 13) (TLR5): increased the activity in dose-dependent manners; cellular uptake in bone marrow-derived dendritic cells (FIG. 14) [3]: scarcely detected; expression of CD80 and CD86 on BMDC surface (FIG. 20) [4]: no statistical significance
